In patent US10640469B2, “Polyhydroxyphthalazinone compound, preparation method thereof and use thereof” (RejuvGen Pharmaceuticals, Inc., priority 2017, dated 2020):

Experiments:
[1] = target: ER-β receptor (Homo sapiens, UniProt Q92731); assay: Radioligand ([3H]-estradiol) competition binding to estrogen receptor, ER-β; settings: [3H]-estradiol 100 nM, incubated overnight at 4° C., GF/B filtration, scintillation counting; read-out: Affinity constant of ER-β receptor
Procedure: (§1) The activity of the compound was obtained as follows: the compound was first dissolved in DMSO and formulated into 6-8 concentration gradient solutions. The estrogen receptor and radiolabeled estradiol ([^3H]-estradiol, 100 nM) were added into the buffer and mixed to prepare a reaction solution. Each compound concentration gradient solution was separately added into the reaction solution, mixed, and incubated overnight at 4° C. so that the compound and estradiol fully reacted with the estrogen receptor. Then, the TopCount NXT Liquid Scintillation Counter (Perkin Elmer) was used for the radioactivity intensity measurement after GF/B filtration. Data processing was performed according to the detected values of each concentration to obtain the affinity constant of the compound with estrogen receptor, as shown in the following table: […]

[2] = target: T1, ER-α receptor (Homo sapiens, UniProt P03372); assay: Radioligand ([3H]-estradiol) competition binding to estrogen receptor, ER-α; settings: [3H]-estradiol 100 nM, incubated overnight at 4° C., GF/B filtration, scintillation counting; read-out: Affinity constant of ER-α receptor
T1 sequence (P03372 1-595): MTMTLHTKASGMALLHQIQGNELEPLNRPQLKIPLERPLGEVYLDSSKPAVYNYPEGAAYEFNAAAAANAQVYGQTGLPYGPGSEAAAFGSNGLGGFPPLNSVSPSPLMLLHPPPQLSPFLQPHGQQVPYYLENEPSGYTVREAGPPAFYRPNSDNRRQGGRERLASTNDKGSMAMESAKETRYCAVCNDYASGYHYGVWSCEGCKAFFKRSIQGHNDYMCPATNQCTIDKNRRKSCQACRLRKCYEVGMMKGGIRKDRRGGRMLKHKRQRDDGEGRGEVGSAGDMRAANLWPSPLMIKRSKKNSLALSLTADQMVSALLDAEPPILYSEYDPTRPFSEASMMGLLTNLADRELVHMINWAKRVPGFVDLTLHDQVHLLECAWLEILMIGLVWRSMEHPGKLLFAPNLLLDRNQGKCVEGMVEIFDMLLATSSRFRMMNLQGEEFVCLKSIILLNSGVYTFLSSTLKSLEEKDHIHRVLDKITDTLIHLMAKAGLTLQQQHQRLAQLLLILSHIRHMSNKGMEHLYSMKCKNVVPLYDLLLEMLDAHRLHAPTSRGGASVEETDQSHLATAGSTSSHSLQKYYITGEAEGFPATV
Procedure: as §1

Sequence of ER-β receptor (Q92731 whole entry): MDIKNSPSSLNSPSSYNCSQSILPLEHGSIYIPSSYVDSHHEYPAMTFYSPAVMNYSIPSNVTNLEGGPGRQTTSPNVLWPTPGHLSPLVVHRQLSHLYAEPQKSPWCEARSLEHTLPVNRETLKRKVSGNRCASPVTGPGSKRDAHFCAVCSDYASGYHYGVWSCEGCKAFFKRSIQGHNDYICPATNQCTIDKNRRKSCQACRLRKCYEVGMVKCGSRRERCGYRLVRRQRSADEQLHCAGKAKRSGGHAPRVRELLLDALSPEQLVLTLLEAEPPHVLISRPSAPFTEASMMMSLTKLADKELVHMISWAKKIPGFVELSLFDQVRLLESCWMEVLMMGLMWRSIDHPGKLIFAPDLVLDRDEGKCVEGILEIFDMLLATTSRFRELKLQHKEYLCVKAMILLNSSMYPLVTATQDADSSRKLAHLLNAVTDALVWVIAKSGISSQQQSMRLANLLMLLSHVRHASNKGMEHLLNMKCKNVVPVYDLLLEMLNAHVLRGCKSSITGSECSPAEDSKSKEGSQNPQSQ

Ki [1] [nM] | Ki [2] [nM] | SMILES
105 | 1200 | O=c1c2c(O)cc(O)cc2cnn1-c1ccc(O)cc1
8 | 76 | Cc1nn(-c2ccc(O)cc2)c(=O)c2c(O)cc(O)cc12
1500 | 3600 | O=c1c2c(O)cc(O)c(Br)c2cnn1-c1ccc(O)cc1
10 | 98 | CCc1nn(-c2ccc(O)cc2)c(=O)c2c(O)cc(O)cc12
